{"source": "patent US20260034192A1", "about": "(University of Saskatchewan, priority 2022, published 2026)", "key": {"alpacas": {"system": "alpacas", "assay": "Alpaca Cetrorelix known stage study, two injections (Example 2)", "format": "in vivo", "settings": "for Wave emergence after the first Cetrorelix injection, average: 2 x 1.5 mg i/m, D5 and D10 groups combined", "from_the_text": "Methods: The specific objective of this experiment was to identify the pattern of growth for the dominant follicle in alpacas following treatment with a GnRH antagonist during two contrasting stages of the follicular wave. Based on data from natural spontaneous waves in alpacas, the dominant follicle is expected to be in early- to mid-growing phase (6 to 7 mm in diameter) on Day 5 and in mid-static phase (9 to 10 mm) on Day 10, so the treatments were planned to begin on these days.\nThe experimental design is illustrated FIG. 3. Transrectal ovarian ultrasonography was performed using an Esoate My Lab 5 ultrasound machine and a 7.5 linear array transducer attached to a custom-build rigid PVC pipe handle. The pipe was slightly curved at the transducer end to facilitate manipulation of the transducer. The transducer and the plastic handle were lubricated using methyl cellulose ultrasound gel and inserted slowly into the rectum after manual removal of the faeces. Reproductive track and ovaries were located and 10 to 20 second video clips of left and right ovary were recorded. Sketches of ovaries were drawn daily at the time of imaging to record location, size and number of follicles >2 mm in diameter as well as the size and location of the corpus luteum (if present). Ultrasound examinations were performed daily. The experimental data recording began when a spontaneous emergence of a new follicular wave detected in an animal (defined as Extant follicular wave). The day of wave emergence was designated as Day 0 and was defined retrospectively as the first detection of the dominant follicle at 4 or 5 mm size with concomitant increase in number of 3-4 mm follicles.\nThe first group of alpacas (Control group) were given no treatment, their ovaries were examined daily and blood samples were obtained daily from Day 4 to 12 to compare hormonal data from analogous days after Cetrorelix treatment. The second group of alpacas (D5 group) were given the first intramuscular injection of 1.5 mg (3 mL of 0.5 mg per mL solution) Cetrorelix acetate on Day 5 and a second injection of 3 mL on Day 6 (i.e., two i/m injections of 1.5 mg Cetrorelix at 24 hour interval for a total dose of 3 mg). The Cetrorelix dose administered was approximately equal to 20 ug/Kg body weight per day (considering average body weight of alpaca=75 kg) and based on the previous studies in llama and cattle (Silva et al, 2011, Ulker et al 2001). Alpacas in the third group (D10 group) were given the first intramuscular injection of 1.5 mg Cetrorelix acetate on Day 10 and a second injection of 1.5 mg on Day 11.\nCetrorelix treatments were given during the extant follicular wave. Changes in the size of the dominant follicle, largest subordinate follicle, and the number of ≥3 mm follicles were recorded daily from spontaneous emergence of extant follicular wave to Day 6 of next (post-treatment) follicular wave emergence. The inter-wave interval was determined based on duration between emergence of successive follicular waves.\nBlood samples (5 to 8 mL) were collected in heparinized tubes (BD Vacutainer, BD Franklin Lakes, NJ, USA) via jugular venipuncture. Blood samples were kept on ice packs till centrifugation at 200 rpm (within 1 hr of collection) to obtain plasma samples that were immediately frozen at −20° C. until measurement of plasma LH. Plasma samples were obtained on Day 4 to 7 in Group 2 (that is, 1 day before to 1 day after Cetrorelix treatment) and on Day 9 to 12 in Group 3. For direct comparison, plasma samples were obtained from Day 4 to 12 in control group."}, "mature Angus heifers": {"system": "mature Angus heifers", "assay": "Cetrorelix versus estradiol benzoate synchronization protocol with AI, random day of cycle (Example 7)", "format": "in vivo, cattle", "method": "This experiment was conducted on 38 mature Angus heifers at the Federal University of Santa Maria in Brazil. Heifers on a random day of the cycle (defined as Day 0) were divided into 2 groups (n=19 per group) and treated with a single i/m injection of 3 mg cetrorelix or with estradiol benzoate (1 mg i/m). A progesterone-releasing device (CIDR) was placed in the vagina of heifers at this time. Eight days after the cetrorelix or estradiol treatments, heifers were given 500 ug cloprostenol (prostaglandin analog) i/m injections and the CIDR device was removed. […] Heifers were given 250 ug gonadorelin acetate (GnRH analog) i/m injection at the time of artificial insemination. […] Pregnancy diagnosis was done 29-30 days after artificial insemination."}, "[1]": {"system": "Brahman x Angus cross beef post-partum cows", "assay": "Field trial of fixed-time AI after cetrorelix versus estradiol protocol (Example 8)", "format": "in vivo, cattle", "method": "This field trial was conducted by a faculty member of the Federal University of Santa Maria at a client beef farm in Brazil in December 2022. A total of 216 Brahman x Angus cross beef post-partum cows were used for this experiment. Cows were divided into two treatment groups ([…]) and were either given cetrorelix 3 mg i/m or estradiol benzoate on a random day of the cycle (defined as Day 0). An intravaginal progesterone device (CIDR) was placed in all cows on Day 0. The CIDR devices were removed on Day 8 and animals were given prostaglandin F2a analog and equine choriogonadotropin (eCG). Fixed-time artificial insemination was done 54 hrs after CIDR removal and animals were given GnRH at this time. Pregnancy diagnosis was performed on Day 30 after artificial insemination. Transrectal ultrasound examinations were performed on Day 0, Day 8, Day 10 and Day 40."}, "[2]": {"settings": "2 x 1.5 mg i/m starting Day 5 (D 5)"}, "[3]": {"settings": "2 x 1.5 mg i/m starting Day 10 (D 10)"}, "[4]": {"settings": "2 x 1.5 mg i/m starting Day 10 (D 10), n = 6"}, "[5]": {"settings": "3 mg cetrorelix or 1 mg estradiol benzoate i/m"}, "[6]": {"settings": "30 days after fixed-time artificial insemination"}}, "note": "Values joined by “and” are separate entries in the source; they are usually repeats but may differ in a detail not shown here. Identical values can stand only once. Marks after values point to notes of the source that are not given here. Square brackets hold non-standard residues; d marks the D form. Peptide text beside a SMILES is read from it. dPhe(4-Cl) = N[C@H](Cc1ccc(Cl)cc1)C(=O)O; d2Nal = N[C@H](Cc1ccc2ccccc2c1)C(=O)O; dCit = NC(=O)NCCC[C@@H](N)C(=O)O; d3Pal = N[C@H](Cc1cccnc1)C(=O)O", "data": [{"smiles": "CC(=O)N[C@H](Cc1ccc2ccccc2c1)C(=O)N[C@H](Cc1ccc(Cl)cc1)C(=O)N[C@H](Cc1cccnc1)C(=O)N[C@@H](CO)C(=O)N[C@@H](Cc1ccc(O)cc1)C(=O)N[C@H](CCCNC(N)=O)C(=O)N[C@@H](CC(C)C)C(=O)N[C@@H](CCCNC(=N)N)C(=O)N1CCC[C@H]1C(=O)N[C@H](C)C(N)=O", "note": "[Cetrorelix, N-acetyl-3-(2-naphthyl)-D-alanyl-4-chloro-D-phenylalanyl-3-(3-pyridyl)-D-alanyl-L-seryl-L-tyrosyl-D-citrullyl-L-leucyl-L-arginyl-L-prolyl-D-alaninamide] (Ac-[d2Nal][dPhe(4-Cl)][d3Pal]SY[dCit]LRP[dA]-NH2)", "values": [{"measurement": "Extant Wave: Total Number of Follicles on Day of Emergence", "setting": "alpacas; 1.5 mg Cetrorelix acetate i/m twice at 24 hr interval starting Day 5 (D 5)", "value": "10.71 ± 0.97"}, {"measurement": "Extant Wave: Total Number of Follicles on Day of Emergence", "setting": "alpacas; 1.5 mg Cetrorelix acetate i/m twice at 24 hr interval starting Day 10 (D 10)", "value": "9.14 ± 1.39"}, {"measurement": "Day of largest subordinate follicle maximum diameter", "setting": "alpacas; [2]", "value": "1.86 ± 1.01", "unit": "days"}, {"measurement": "Degree of Synchrony: Days from treatment to next wave emergence", "setting": "alpacas; [2]", "value": "7.71 ± 0.36 days and 7.7 ± 0.36 days"}, {"measurement": "Dominant Follicle Diameter on Day 5 (mm)", "setting": "alpacas; [2]", "value": "6.64 ± 0.43", "unit": "mm"}, {"measurement": "Dominant Follicle Diameter on Day 10 (mm)", "setting": "alpacas; [2]", "value": "5.50 ± 0.87^b mm"}, {"measurement": "Dominant Follicle Diameter on Day of Cetrorelix Treatment (mm)", "setting": "alpacas; [2]", "value": "6.64 ± 0.43^a mm"}, {"measurement": "Dominant Follicle End of Growth (days)", "setting": "alpacas; [2]", "value": "4.86 ± 0.40^b days"}, {"measurement": "Interwave Interval", "setting": "alpacas; [2]", "value": "12.7 ± 0.36 days and 12.7 days"}, {"measurement": "Interwave Interval (days)", "setting": "alpacas; [2]", "value": "12.71 ± 0.36^b days"}, {"measurement": "Largest Subordinate Follicle Diameter on Day 5 (mm)", "setting": "alpacas; [2]", "value": "3.21 ± 0.21", "unit": "mm"}, {"measurement": "Largest Subordinate Follicle Diameter on Day 10 (mm)", "setting": "alpacas; [2]", "value": "2.71 ± 0.81", "unit": "mm"}, {"measurement": "Largest Subordinate Follicle Diameter on Day of Cetrorelix Treatment (mm)", "setting": "alpacas; [2]", "value": "3.21 ± 0.21", "unit": "mm"}, {"measurement": "Largest Subordinate Follicle Maximum Diameter (mm)", "setting": "alpacas; [2]", "value": "4.57 ± 0.40", "unit": "mm"}, {"measurement": "Next Wave: Total Number of Follicles on Day of Emergence", "setting": "alpacas; [2]", "value": "13.14 ± 1.47"}, {"measurement": "Day of dominant follicle maximum diameter", "setting": "alpacas; [3]", "value": "10.3±0.68 days and 10.29 ± 0.68^a days"}, {"measurement": "Day of largest subordinate follicle maximum diameter", "setting": "alpacas; [3]", "value": "6.00 ± 1.36", "unit": "days"}, {"measurement": "Dominant Follicle Diameter on Day 5 (mm)", "setting": "alpacas; [3]", "value": "9.71 ± 1.77", "unit": "mm"}, {"measurement": "Dominant Follicle Diameter on Day 10 (mm)", "setting": "alpacas; [3]", "value": "10.36 ± 0.85^a mm"}, {"measurement": "Dominant Follicle Diameter on Day of Cetrorelix Treatment (mm)", "setting": "alpacas; [3]", "value": "10.36 ± 0.85^b mm"}, {"measurement": "Dominant Follicle End of Growth (days)", "setting": "alpacas; [3]", "value": "8.00 ± 0.38^a days"}, {"measurement": "Dominant Follicle Length of Static Phase", "setting": "alpacas; [3]", "value": "4.9 ± 0.40", "unit": "days"}, {"measurement": "Dominant Follicle Length of Static Phase (days)", "setting": "alpacas; [3]", "value": "4.86 ± 0.40^ab days"}, {"measurement": "Dominant Follicle Maximum Diameter (mm)", "setting": "alpacas; [3]", "value": "10.9±0.70 mm and 10.93 ± 0.70^a mm"}, {"measurement": "Dominant Follicle Onset of Regression", "setting": "alpacas; [3]", "value": "12.9 ± 0.34", "unit": "days"}, {"measurement": "Dominant Follicle Onset of Regression (days)", "setting": "alpacas; [3]", "value": "12.86 ± 0.34^a days"}, {"measurement": "Largest Subordinate Follicle Diameter on Day 5 (mm)", "setting": "alpacas; [3]", "value": "4.21 ± 0.76", "unit": "mm"}, {"measurement": "Largest Subordinate Follicle Diameter on Day 10 (mm)", "setting": "alpacas; [3]", "value": "4.00 ± 0.97", "unit": "mm"}, {"measurement": "Largest Subordinate Follicle Diameter on Day of Cetrorelix Treatment (mm)", "setting": "alpacas; [3]", "value": "4.00 ± 0.97", "unit": "mm"}, {"measurement": "Largest Subordinate Follicle Maximum Diameter (mm)", "setting": "alpacas; [3]", "value": "5.79 ± 1.02", "unit": "mm"}, {"measurement": "Interwave Interval", "setting": "alpacas; [4]", "value": "17.71 ± 0.52 days and 18.17 days"}, {"measurement": "Interwave Interval (days)", "setting": "alpacas; [4]", "value": "17.71 ± 0.52^c# days"}, {"measurement": "Next Wave: Total Number of Follicles on Day of Emergence", "setting": "alpacas; [4]", "value": "12.14 ± 1.08"}, {"measurement": "Wave emergence after the first Cetrorelix injection, average", "setting": "alpacas", "value": "7.92 ± 0.24", "unit": "days"}, {"measurement": "Wave emergence after the first Cetrorelix injection, average", "setting": "alpacas; listed as Cetrorelix acetate", "value": "about 7.92±0.24 days"}, {"measurement": "Interval from first treatment to next wave emergence, range", "setting": "alpacas; D5 group", "value": "7 to 9", "unit": "days"}, {"measurement": "Interval from first treatment to next wave emergence, range", "setting": "alpacas; D10 group", "value": "7 to 9", "unit": "days"}, {"measurement": "Heifers showing estrous behavior, compared with estradiol-progesterone treatment", "setting": "mature Angus heifers; 3 mg cetrorelix i/m", "value": "greater proportion"}, {"measurement": "Pregnant/Double AI", "setting": "mature Angus heifers; [5]", "value": "7/9"}, {"measurement": "Pregnant/Double AI, percent", "setting": "mature Angus heifers; [5]", "value": 78, "unit": "%"}, {"measurement": "Pregnant/Single AI", "setting": "mature Angus heifers; [5]", "value": "8/10"}, {"measurement": "Pregnant/Single AI, percent", "setting": "mature Angus heifers; [5]", "value": 80, "unit": "%"}, {"measurement": "Ovulations that occurred between 72 to 96 hr after prostaglandin injection", "setting": "mature Angus heifers; cetrorelix protocol", "value": 90, "unit": "%"}, {"measurement": "Pregnant/Total, percent (pregnancy rate)", "setting": "mature Angus heifers; random day of cycle, 3 mg cetrorelix i/m or 1 mg estradiol benzoate i/m, CIDR 8 days", "value": 79, "unit": "%"}, {"measurement": "Pregnant/Total", "setting": "mature Angus heifers; random day of cycle, 3 mg cetrorelix i/m or 1 mg estradiol benzoate i/m, CIDR 8 days, PGF, GnRH at AI", "value": "15/19"}, {"measurement": "Conception rate: Percent", "setting": "[1]; [6]", "value": 42.6, "unit": "%"}, {"measurement": "Conception rate: Pregnant/AI", "setting": "[1]; [6]", "value": "46/108*"}, {"measurement": "Conception rate: Percent", "setting": "[1]; 30 days after fixed-time artificial insemination, listed as cetrorelix", "value": 42.6, "unit": "%"}, {"measurement": "Size of the dominant follicle on Day 8 (at PGF)", "setting": "[1]; cetrorelix 3 mg i/m or estradiol benzoate on Day 0, CIDR removal Day 8, in mm", "value": "11.04 ± 0.48"}, {"measurement": "Size of the dominant follicle on Day 10 (at AI)", "setting": "[1]; cetrorelix 3 mg i/m or estradiol benzoate on Day 0, in mm", "value": "12.72 ± 0.65"}]}]}
